Some test systems named below: SF-539; HCT-116; HCC 2998; OVCAR-3; U-251; OVCAR-4; TK-10; HCT-15; IGROV-1; SW-620; NCI-H226; SF-268; SN12C; SR; RXF 393.
Test in all cases: NCI anticancer screen, dose series, 48 h

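Following 48 hours of exposure in 96-well plates, responses at five concentrations were used to interpolate endpoints linearly. At the GI50, growth is halved.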 Calls of active or inactive are those of the source. Rule as the data show it: active = GI50 up to about 1.1 µM and inactive = higher.

Turning to `O=C1C(=Cc2ccc(F)cc2)C(=O)c2ccccc21`, the GI50 with SF-539, in the experiment on HCT-116, in the experiment with HCC 2998, in the experiment with OVCAR-3, with U-251 and in the experiment with OVCAR-4 was > 100 µM (inactive) throughout. The GI50 with TK-10 is > 100 µM (inactive); in the experiment with HCT-15, greater than 100 µM; with IGROV-1, > 100 µM (inactive); in the experiment with SW-620, > 100 µM (inactive); in the experiment with NCI-H226, > 100 µM (inactive); in the experiment with SF-268, > 100 µM (inactive).
For the molecule `OC12CCC3(OC4CCCCO4)c4ccccc4C3C1c1ccccc12` (centres undefined), the GI50 with HCT-116 was 35 µM (inactive); with U-251, 53.8 µM (inactive); with OVCAR-4, > 100 µM (inactive); with TK-10 it was > 100 µM (inactive); with HCT-15 it was 24.2 µM; in the experiment on SN12C, 87.7 µM (inactive). Also, the GI50 with SR was 37.2 µM (inactive); in the experiment on RXF 393, 44.6 µM (inactive); with SW-620, 55.6 µM (inactive); with NCI-H226, > 100 µM (inactive); in the experiment on SF-268, 65.9 µM (inactive).
For the molecule `Cn1cnc([N+](=O)[O-])c1Sc1nnnn1C`, the GI50 with SF-539 is 18.2 µM (inactive); in the experiment on HCT-116 it was 14.9 µM (inactive); with HCC 2998 it was 23.6 µM (inactive); in the experiment on OVCAR-3 it was 15.9 µM (inactive); with U-251, 18 µM (inactive); in the experiment with OVCAR-4, 16.9 µM (inactive). Also, the GI50 with TK-10 was 17.5 µM (inactive); in the experiment on SN12C, 16.3 µM (inactive); with SR, 11.4 µM (inactive); in the experiment with IGROV-1 it was 19.5 µM (inactive); in the experiment on SW-620, 13.1 µM (inactive); in the experiment with NCI-H226, 44.7 µM (inactive). For the same molecule, in the experiment on SF-268, the GI50 was 21.5 µM (inactive).
Take `COc1ccc(NC(=O)CC(=O)N/N=C(\C)c2cc3ccccc3oc2=O)cc1`: the GI50 is > 100 µM (inactive) with SF-539; > 100 µM (inactive) with HCT-116; > 100 µM (inactive) in the experiment on OVCAR-3; > 100 µM (inactive) in the experiment on U-251; > 100 µM (inactive) in the experiment on TK-10; greater than 100 µM in the experiment on HCT-15. In addition, the GI50 in the experiment on SN12C, with IGROV-1, in the experiment with RXF 393, with SW-620 and in the experiment with NCI-H226 was > 100 µM (inactive) in each case.
As for `CN(C(=O)c1ccco1)C(=S)N1CCN(c2ccccc2)CC1`, the GI50 in the experiment on SF-539, with HCT-116, in the experiment with OVCAR-3, in the experiment with U-251, in the experiment on OVCAR-4 and with TK-10 was > 100 µM (inactive) each time. Besides, the GI50 with HCT-15 is greater than 100 µM; in the experiment on SN12C it was > 100 µM (inactive); in the experiment on SR it was > 100 µM (inactive); in the experiment with IGROV-1, > 100 µM (inactive); with RXF 393, > 100 µM (inactive); in the experiment on SW-620, > 100 µM (inactive). Also, the GI50 is 71.3 µM (inactive) in the experiment with NCI-H226 and > 100 µM (inactive) in the experiment on SF-268.
For the molecule `c1ccc(SC(Sc2ccccc2)=C2CCC2)cc1`, the GI50 in the experiment with SF-539, in the experiment with HCT-116, with OVCAR-3, in the experiment on U-251, in the experiment with OVCAR-4 and in the experiment with TK-10 was > 100 µM (inactive) each time. Moreover, the GI50 in the experiment on HCT-15 is greater than 100 µM; in the experiment with SN12C, > 100 µM (inactive); with SR, > 100 µM (inactive); in the experiment with RXF 393 it was > 100 µM (inactive); in the experiment on SW-620, > 100 µM (inactive); with SF-268, > 100 µM (inactive).
Consider `NC(=O)c1nc(-c2ccc(Cl)c(Cl)c2)nc2ccccc12`, for which the GI50 with SF-539 is 13.4 µM (inactive); in the experiment with HCT-116, > 19.8 µM (inactive); in the experiment on U-251, > 28 µM (inactive); in the experiment on OVCAR-4, > 100 µM (inactive); in the experiment with TK-10, 22.6 µM (inactive); with HCT-15, greater than 100 µM. Besides, the GI50 with SN12C was > 100 µM (inactive); with SR, > 100 µM (inactive); with IGROV-1, > 100 µM (inactive); in the experiment on RXF 393 it was 12.5 µM (inactive); in the experiment with SW-620, > 22 µM (inactive); with NCI-H226 it was 18 µM (inactive). For the same molecule, in the experiment on SF-268, the GI50 is 19.1 µM (inactive).
Turning to `CC(C)O/C=C1\C(=O)C2(SCCS2)[C@H]2CCCC[C@@H]12`, the GI50 in the experiment on SF-539 is 44.3 µM (inactive); in the experiment on HCT-116, 34.4 µM (inactive); in the experiment on HCC 2998, 66.4 µM (inactive); in the experiment with U-251, 40.5 µM (inactive); in the experiment with OVCAR-4, 48.9 µM (inactive); in the experiment on TK-10, 43 µM (inactive). The GI50 was 33.9 µM in the experiment on HCT-15; 68.7 µM (inactive) in the experiment with SN12C; 48.9 µM (inactive) in the experiment on SR; 49.7 µM (inactive) with IGROV-1; 21.8 µM (inactive) in the experiment on RXF 393; 42.7 µM (inactive) in the experiment on SW-620. For the same molecule, the GI50 is 84.1 µM (inactive) in the experiment with NCI-H226 and 39 µM (inactive) with SF-268.
On to `CC1=NN(C(=O)Nc2ccccc2)C(=O)C2CCC(=O)N12` (centres undefined), for which the GI50 in the experiment with SF-539, in the experiment with HCT-116, in the experiment on HCC 2998, in the experiment on OVCAR-3, with U-251 and in the experiment with OVCAR-4 was > 100 µM (inactive) throughout. For the same molecule, the GI50 in the experiment on TK-10 is > 100 µM (inactive); in the experiment with HCT-15, greater than 100 µM; in the experiment on SN12C, > 100 µM (inactive); with SR, > 100 µM (inactive); in the experiment on IGROV-1, > 100 µM (inactive); with RXF 393, > 100 µM (inactive). For the same molecule, the GI50 in the experiment on SW-620 and in the experiment on SF-268 was > 100 µM (inactive) in each case.
In the case of `O=[N+]([O-])c1cc(/C=N/NS(=O)(=O)c2ccc(F)cc2)c(O)c([N+](=O)[O-])c1`, the GI50 was 22 µM (inactive) with SF-539; 33.7 µM (inactive) with HCT-116; > 100 µM (inactive) with HCC 2998; 29 µM (inactive) in the experiment on OVCAR-3; 23.8 µM (inactive) with U-251; 58.1 µM (inactive) with OVCAR-4. For the same molecule, the GI50 in the experiment on TK-10 was 57.1 µM (inactive); in the experiment on HCT-15, 26.5 µM; in the experiment with SN12C, 33.7 µM (inactive); with SR it was 18.4 µM (inactive); in the experiment on IGROV-1 it was 69.5 µM (inactive); with RXF 393, 36.6 µM (inactive). In addition, the GI50 with SW-620 is 41.3 µM (inactive); in the experiment with SF-268 it was 40.1 µM (inactive).
Turning to `CCC12C=CCN(CCc3c([nH]c4ccccc34)/C=C\1)C2` (centres undefined), the GI50 in the experiment on SF-539, in the experiment on HCT-116, with HCC 2998, with OVCAR-3, with U-251 and in the experiment with OVCAR-4 was > 100 µM (inactive) each time. The GI50 in the experiment on HCT-15 was greater than 100 µM; with SN12C, > 100 µM (inactive); in the experiment with SR it was > 100 µM (inactive); in the experiment on IGROV-1 it was > 100 µM (inactive); with SW-620 it was > 100 µM (inactive); in the experiment on NCI-H226, > 100 µM (inactive). The GI50 with SF-268 is > 100 µM (inactive).
Consider `COC(=O)C(=O)C(C(=O)C(=O)Nc1ccccc1[N+](=O)[O-])c1nc2ccc([N+](=O)[O-])cc2nc1O` (centres undefined), for which the GI50 is > 100 µM (inactive) in the experiment with HCT-116; > 100 µM (inactive) in the experiment with U-251; > 100 µM (inactive) with OVCAR-4; > 10 µM (inactive) with TK-10; greater than 100 µM in the experiment with HCT-15; > 100 µM (inactive) with SN12C. Further, the GI50 in the experiment with SR, in the experiment on IGROV-1, in the experiment with RXF 393, in the experiment on SW-620, in the experiment with NCI-H226 and in the experiment with SF-268 was > 100 µM (inactive) in each case.
As for `CSC1C=C(C(C)C)CCC1(C)SC` (centres undefined), the GI50 was 18.7 µM (inactive) in the experiment on SF-539; 19.2 µM (inactive) in the experiment with HCT-116; 16.6 µM (inactive) in the experiment with HCC 2998; 12.6 µM (inactive) in the experiment on OVCAR-3; 19.5 µM (inactive) in the experiment with U-251; 18.1 µM (inactive) in the experiment on OVCAR-4. For the same molecule, the GI50 with TK-10 was 21.4 µM (inactive); with HCT-15 it was 21 µM; in the experiment on SN12C it was 16.9 µM (inactive); in the experiment with IGROV-1, 20.9 µM (inactive); in the experiment with RXF 393, 15.5 µM (inactive); in the experiment on SW-620, 19.9 µM (inactive). The GI50 is 17.4 µM (inactive) in the experiment with NCI-H226 and 20.6 µM (inactive) with SF-268.
`C[N+](C)(C)C1CC([N+](C)(C)C)C2c3ccccc3C21` (centres undefined): the GI50 in the experiment on SF-539, with HCT-116, with HCC 2998, in the experiment with OVCAR-3, in the experiment on U-251 and in the experiment on OVCAR-4 was > 100 µM (inactive) in each case. The GI50 with TK-10 was > 100 µM (inactive); in the experiment on HCT-15, greater than 100 µM; with SN12C, > 100 µM (inactive); in the experiment with IGROV-1, > 100 µM (inactive); with RXF 393 it was > 100 µM (inactive); in the experiment with SW-620, > 100 µM (inactive). Moreover, the GI50 in the experiment with NCI-H226 and in the experiment on SF-268 was > 100 µM (inactive) throughout.
As for `O=c1c2ccccc2nc(-c2ccccc2Cl)n1NC1OC(CO)C(O)C(O)C1O` (centres undefined), the GI50 with SF-539, in the experiment with HCT-116, in the experiment with HCC 2998, in the experiment on OVCAR-3, in the experiment on U-251 and with OVCAR-4 was > 100 µM (inactive) throughout. The GI50 was > 100 µM (inactive) with TK-10; greater than 100 µM with HCT-15; > 100 µM (inactive) with SN12C; > 100 µM (inactive) in the experiment on IGROV-1; > 100 µM (inactive) in the experiment on SW-620; > 100 µM (inactive) with NCI-H226. Further, the GI50 in the experiment with SF-268 was > 100 µM (inactive).

The values above are taken from ChEMBL document CHEMBL1201862, “PubChem BioAssay data set” (2004).
